Test results taken from EP0323416A2, “Phenylbenzylidene derivatives of 3-aminopropanesulfonic acid having anticonvulsant activity and pharmaceutical compositions containing same for the therapeutical treatment of epilepsy” (Sigma-Tau Industrie Farmaceutiche Riunite S.p.A., priority 1987, dated 1989).
Marks after values point to notes of the source that are not given here.

Columns and labels:
[1] = system: cardiazol-induced convulsions; experiment: Cardiazol-induced convulsions test in mice; assay type: in vivo, male albino Swiss (Charles River) mice
Method: (§1) The doses of cardiazol, strychinine, bicuculline and picrotoxin (100 mg/10 ml/kg i.p., 0.73 mg/10 ml/kg s.c., 2.38 mg/10 ml/kg s.c. and 4.42 mg/10 ml/kg s.c. respectively) were chosen in such a way as to provoke death of 50% of the control animals.
(§2) The tests were carried out in male albino Swiss (Charles River) mice weighing 22-24 g which had been kept fasting for 18 hours.
(§3) 100/0 gum arabic suspensions of the compounds under examination were orally administered 60 minutes before the convulsant agent administration.
(§4) As reference substance, 3-APS (200-400-800 mg/10 ml/kg i.p.) was used.

[2] = system: strychnine-induced convulsions; experiment: Strychnine-induced convulsions test in mice; assay type: in vivo, male albino Swiss (Charles River) mice
Method: as §1, §2, §3, §4

[3] = system: bicuculline-induced convulsions; experiment: Bicuculline-induced convulsions test in mice; assay type: in vivo, male albino Swiss (Charles River) mice
Method: as §1, §2, §3, §4

[4] = system: picrotoxin-induced convulsions; experiment: Picrotoxin-induced convulsions test in mice; assay type: in vivo, male albino Swiss (Charles River) mice
Method: as §1, §2, §3, §4

male albino Swiss mice = experiment: Tolerability test, oral; assay type: in vivo; conditions: suspension in 10% gum arabic, dose of 3 g/kg, mice fasting for 18 hours
Method: The tolerability test was carried out on male albino Swiss mice weighing 22-24 g. The animals, which had been kept fasting for 18 hours, were orally administered a suspension in 10% gum arabic of the compounds ST 505 and ST 512.

[5] = system: cardiazol-induced convulsions; experiment: Cardiazol-induced convulsions test in rats; assay type: in vivo, male albino Wistar rats; conditions: oral, 60 minutes before cardiazole 70 mg/10ml/kg i.p.
Method: The compound was also orally administered to male albino Wistar rats weighing 170-200 g (see table 3), at the dose equimolar to 100 mg 3-APS 60 minutes before cardiazole administration (70 mg/10ml/kg i.p.).

FeCl3-induced epilepsy = FeCl3-induced epilepsy model (EEG); assay type: in vivo, Male albino Wistar rats; conditions: 500 mg/kg oral 45 minutes following FeCl3 injection; Mann-Whitney's U test, P<0.05
Method: Male albino Wistar rats weighing 250-300g were used. The animals, anaesthetized with Nembutal Na (30 mg/kg i.p.), were stereotactically injected in their left ventral hippocampus one microliter of 0.55 M FeCl3 solution (AP=-3.2; L=5.0.; H=5.5 Pelhgrino and Cushman, 1971). Ten minutes following injection, recording electrodes were implanted: in both ventral hippocampi, two millimiters below the FeCl3 injection site (bipolars), bilaterally on the frontoparietal cortex (monopolars). recording of cerebral bioelectric activity, carried out with an EEG OTE-Biomedica PF 14e recorder, began about one hour following FeCl3 injection and lasted more than three hours on end.The epilepsy degree was assessed by calculating for each animal the number and duration in seconds of the seizures at 15-minute intervals during the whole recording span both in the hyppocampus where the injection had been performed and in the contralateral cortex. Moreover, an "index of epileptization" was calculated as the mean product of seizure number times the duration of the seizures in each time interval. […]
The results thus obtained show the antiepileptic activity of the compound assessed by examining the whole phenomenon as it evolves in time via the measure (carried out with the trapezoidal rule) of the area under the curve wherein the average number of seizures and their duration is plotted versus time.

auricular electroshock = experiment: Auricular electroshock (maximal electroshock death); assay type: in vivo, Male albino Swiss mice; conditions: oral in gum arabic 60 minutes before the electroshock, 10 mice
Method: Male albino Swiss mice weighing 22-24 g were used in this test. The electroshock conditions were the shock duration: 3 seconds; frequence: 100; pulse amplitude: 0.6 milliseconds, current intensity: 40 milliamperes. The compounds ST 505 and ST 512 suspended in gum arabic were orally administered 60 minutes before the electroshock.
The tests results which illustrate the number of animal preserved from death provoked by maximal electroshock are shown in the following Table 4.

[6] = system: Sodium penicillin G-induced epilepsy; experiment: Sodium penicillin G-induced epilepsy (EEG); assay type: in vivo, Male albino Wistar rats; conditions: rats
From the text: In this regard, see: Holmes, O. arid Lockton, J.W.: "Locally generated interictal epilectic spikes in the cortex cerebri of the rat". J.Physiol. (Lond.), 308 (1980) 75-76 P. Lokcton, J.W. and Holmes, O: "Site of penicillin-induced epilepsy in the cortex cerebri of the rat'. Brain research, 190 (1980) 301-304. Reichental, E. and Hocherman, S. : "The critical cortical area for development of penicillin-induced epilepsy". Electroenceph. Clin. Neurophysiol., 42 (1977) 248-251).
Male albino Wistar rats weighing 260-280 g were used in this test. Epilepsy was induced in these rats through the application of 5 mg of sodium penicillin G, power (Carlo Erba) on the left cortex cerebri. EEG recording (electroencephalograph OTE-Biomedica PF 14e) was carried out with cortical electrodes. Following a 15 minute recording period (basal), the animals were orally administered 250 mg/10 ml/kg of ST 505 suspended in 10% gum arabic. The controls were administered 10 ml/kg of 10% gum arabic.
The following parameters were taken into account: • a) numper of peaks of the EEG tracing in subsequent 15 minu te intervals, in an overall 5-hour recording period; and • b) number of fits with attendant average duration for each interval.
With regard to parameter a), the area under the curve was calculated wherein the number of peaks at different times and its accumulation function were plotted versus the observation time, thus obtaining five descriptive parameters: one which gives the measure (area) of the totale amount of epilepsy and four (shape indexes) describing the trends of the peaks during the time interval (five hours) under examination. These shape indexes were the percentile values at 50%, 60%, 70% and 800/0 of the accumulation function of the area versus time and represented, therefore, for each rat, a measure of the distribution of the epileptic fits in time.
The fits were studied with the same model as that utilized for the peaks.

[7] = 200, 400 and 800 mg/10 ml/kg i.p., mice
[8] = 400 mg/10 ml/kg i.p., mice, versus control
[9] = oral, 100 mg/kg eq. 3 APS, 60 minutes before convulsant, mice (Table 3)
[10] = oral, 200 mg/kg eq. 3-APS, versus control
[11] = oral, 200 mg/kg eq. 3 APS, 60 minutes before convulsant, mice (Table 3)
[12] = oral, 100 mg/kg eq. 3-APS, versus control
[13] = oral, 100 mg/kg eq. 3 APS, 60 minutes before convulsant, mice (Table 2)
[14] = oral, 200 mg/kg eq. 3 APS, 60 minutes before convulsant, mice (Table 2)

Structure (SMILES): NCCCS(=O)(=O)O [3-APS, 3-aminopropanesulfonic acid]
- Cardiazol % Death rate ([1]; 200 mg/kg i.p., mice): 50%
- Cardiazol Strong % Conv. ([1]; 200 mg/kg i.p., mice): 100%
- Cardiazol % Death rate ([1]; 400 mg/kg i.p., mice): 90%
- Cardiazol Strong % Conv. ([1]; 400 mg/kg i.p., mice): 100%
- Cardiazol % Death rate ([1]; 800 mg/kg i.p., mice): 60%
- Cardiazol Strong % Conv. ([1]; 800 mg/kg i.p., mice): 100%
- cardiazol-induced death [1, 7]: did not preserve animals
- Strychnine % Death rate ([2]; 200 mg/kg i.p., mice): 90%
- Strychnine Strong % Conv. ([2]; 200 mg/kg i.p., mice): 100%
- Strychnine % Death rate ([2]; 400 mg/kg i.p., mice): 100%
- Strychnine Strong % Conv. ([2]; 400 mg/kg i.p., mice): 100%
- Strychnine % Death rate ([2]; 800 mg/kg i.p., mice): 90%
- Strychnine Strong % Conv. ([2]; 800 mg/kg i.p., mice): 100%
- strychnine-induced death [2, 7]: did not preserve animals
- Bicuculline % Death rate ([3]; 200 mg/kg i.p., mice): 100%
- Bicuculline Strong % Conv. ([3]; 200 mg/kg i.p., mice): 100%
- latency time of bicuculline-induced death [3, 8]: significantly increased
- Bicuculline % Death rate ([3]; 400 mg/kg i.p., mice): 75%
- Bicuculline Strong % Conv. ([3]; 400 mg/kg i.p., mice, 8 animals per group): 100* %
- Bicuculline % Death rate ([3]; 800 mg/kg i.p., mice): 40%
- Bicuculline Strong % Conv. ([3]; 800 mg/kg i.p., mice): 70%
- bicuculline-induced first convulsion latency time ([3]; 800 mg/kg i.p., mice, versus control): significantly increased
- bicuculline-induced death [3, 7]: did not preserve animals
- Picrotoxin % Death rate ([4]; 200 mg/kg i.p., mice): 20%
- Picrotoxin Strong % Conv. ([4]; 200 mg/kg i.p., mice): 100%
- picrotoxin-induced first convulsion latency time [4, 8]: significantly increased
- Picrotoxin % Death rate ([4]; 400 mg/kg i.p., mice): 30%
- Picrotoxin Strong % Conv. ([4]; 400 mg/kg i.p., mice): 100%
- Picrotoxin % Death rate ([4]; 800 mg/kg i.p., mice): 70%
- Picrotoxin Strong % Conv. ([4]; 800 mg/kg i.p., mice): 30%
- picrotoxin-induced death [4, 7]: did not preserve animals

Structure (SMILES): NS(=O)(=O)CCCN=C(c1ccc(Cl)cc1)c1cc(F)ccc1O [ST 505, 3-[[a-(p-chlorophenyl)-5-fluoro-2-hydroxybenzylidene]amino]propanesulfonamide]
- tolerability (male albino Swiss mice): well tolerated
- cardiazole response ([1]; oral, 100 mg/kg eq. 3-APS): did not change
- Cardiazol % Death rate [1, 9]: 90%
- Cardiazol Strong % Conv. [1, 9]: 90%
- latency time of cardiazole-induced first convulsion [1, 10]: increased
- Cardiazol % Death rate [1, 11]: 40%
- Cardiazol Strong % Conv. [1, 11]: 80%
- reduction of strychnine-induced death rate ([2]; oral, 100 mg/kg eq. 3-APS): 20%
- Strychnine % Death rate [2, 9]: 30%
- Strychnine Strong % Conv. [2, 9]: 60%
- strychnine-induced convulsions and death ([2]; oral, 200 mg/kg eq. 3-APS): preserved all the animals
- Strychnine % Death rate [2, 11]: 0%
- Strychnine Strong % Conv. [2, 11]: 0%
- reduction of bicuculline-induced death rate ([3]; oral, 100 mg/kg eq. 3-APS): 20%
- latency time of the bicuculline-induced death [3, 12]: significantly increased
- latency time of the bicuculline-induced first convulsion [3, 12]: significantly increased
- Bicuculline % Death rate [3, 9]: 80%
- Bicuculline Strong % Conv. [3, 9]: 100%
- latency time of bicuculline-induced death [3, 10]: increased
- latency time of bicuculline-induced first convulsion [3, 10]: increased
- Bicuculline % Death rate [3, 11]: 80%
- Bicuculline Strong % Conv. [3, 11]: 100%
- picrotoxin response ([4]; oral, 100 mg/kg eq. 3-APS): did not change
- Picrotoxin % Death rate [4, 9]: 90%
- Picrotoxin Strong % Conv. [4, 9]: 100%
- latency time of picrotoxin-induced first convulsion [4, 10]: increased
- Picrotoxin % Death rate [4, 11]: 90%
- Picrotoxin Strong % Conv. [4, 11]: 100%
- Cardiazol % Death rate ([5]; RAT, 100 mg/kg eq. 3 APS): 60%
- Cardiazol Strong % Conv. ([5]; RAT, 100 mg/kg eq. 3 APS): 60%
- death rate reduction ([5]; Wistar rats, dose equimolar to 100 mg 3-APS): 30%
- first convulsion latency time ([5]; Wistar rats, dose equimolar to 100 mg 3-APS, versus control): significant increase
- area under the curve of average number of seizures and their duration versus time, compared with controls (FeCl3-induced epilepsy): statistically significant difference
- death rate (auricular electroshock; dose 200 (unit not given)): 4/10
- death rate (auricular electroshock; dose 400 (unit not given)): 5/10
- area of the peaks ([6]; 250 mg/10 ml/kg oral, versus controls, Mann Whitney's U test): significantly decreased
- Peak area ([6]; MEAN (S.E.), 250 mg/kg oral, 5-hour EEG recording): 52.9 (5.87)**
- Ist shape index ([6]; MEAN (S.E.), 250 mg/kg oral, percentile 50% of accumulation function): 8.5 (1.0)**
- 2nd shape index ([6]; MEAN (S.E.), 250 mg/kg oral, percentile 60% of accumulation function): 9.8 (1.2)
- 3rd shape index ([6]; MEAN (S.E.), 250 mg/kg oral, percentile 70% of accumulation function): 11.8 (1.4)
- 4th shape index ([6]; MEAN (S.E.), 250 mg/kg oral, percentile 80% of accumulation function): 13.8 (1.4)

Structure (SMILES): NS(=O)(=O)CCCN=C(c1ccccc1)c1ccccc1O [ST 512, 3-[(a-phenyl)-2-hydroxybenzylidene] amino propanesulfonamide]
- tolerability (male albino Swiss mice): well tolerated
- Cardiazol % Death rate [1, 13]: 50%
- Cardiazol Strong % Conv. [1, 13]: 100%
- Cardiazol % Death rate [1, 14]: 60%
- Cardiazol Strong % Conv. [1, 14]: 100%
- reduction of cardiazol-induced death rate ([1]; oral, dose equimolar to 100 mg/10ml/kg of 3-APS, mice): 20%
- reduction of cardiazol-induced death rate ([1]; oral, dose equimolar to 200 mg/10ml/kg of 3-APS, mice): 10%
- Strychnine % Death rate [2, 13]: 80%
- Strychnine Strong % Conv. [2, 13]: 90%
- Strychnine % Death rate [2, 14]: 90%
- Strychnine Strong % Conv. [2, 14]: 80%
- Bicuculline % Death rate [3, 13]: 100%
- Bicuculline Strong % Conv. [3, 13]: 90%
- Bicuculline % Death rate [3, 14]: 100%
- Bicuculline Strong % Conv. [3, 14]: 100%
- Picrotoxin % Death rate [4, 13]: 40%
- Picrotoxin Strong % Conv. [4, 13]: 100%
- Picrotoxin % Death rate [4, 14]: 50%
- Picrotoxin Strong % Conv. [4, 14]: 100%
- death rate (auricular electroshock; dose 200 (unit not given)): 3/10
- death rate (auricular electroshock; dose 400 (unit not given)): 4/10
